Earlier results in patent US8470377B2, “Composition and method for reducing food intake” (Natures Remedies Ltd., priority 2009, dated 2013).

Experiments:
[1] = for food intake and appetite ratings: literature studies
GLP-1 = conditions: approximately 20 g per day for 7 days, human volunteers

O=C(O)CC(O)(C(=O)O)C(O)C(=O)O (centres unmarked) [HCA-SX, hydroxycitric acid]
decrease in food intake ([1]; human studies): 4%

beta-glucan
food intake and appetite ratings [1]: not significantly reduced

fructooligosaccharides
food intake and appetite ratings [1]: not significantly reduced

methylcellulose
food intake and appetite ratings [1]: not significantly reduced

oligofructose
reduction in total intake ([1]; human studies): 5%
serum GLP-1 levels (GLP-1): increased

pectin
food intake and appetite ratings [1]: not significantly reduced

sodium alginate
reduction in energy intake ([1]; human studies): 7%
